A word on the Ki: it is the dissociation constant of the complex between target and ligand, obtained from inhibition or displacement.

From patent US20110028447A1, “INDAZOLE DERIVATIVES” (Pfizer Inc., priority 2008, published 2011) come the findings set out here.

human CB1 receptor, sequence (P21554 whole entry): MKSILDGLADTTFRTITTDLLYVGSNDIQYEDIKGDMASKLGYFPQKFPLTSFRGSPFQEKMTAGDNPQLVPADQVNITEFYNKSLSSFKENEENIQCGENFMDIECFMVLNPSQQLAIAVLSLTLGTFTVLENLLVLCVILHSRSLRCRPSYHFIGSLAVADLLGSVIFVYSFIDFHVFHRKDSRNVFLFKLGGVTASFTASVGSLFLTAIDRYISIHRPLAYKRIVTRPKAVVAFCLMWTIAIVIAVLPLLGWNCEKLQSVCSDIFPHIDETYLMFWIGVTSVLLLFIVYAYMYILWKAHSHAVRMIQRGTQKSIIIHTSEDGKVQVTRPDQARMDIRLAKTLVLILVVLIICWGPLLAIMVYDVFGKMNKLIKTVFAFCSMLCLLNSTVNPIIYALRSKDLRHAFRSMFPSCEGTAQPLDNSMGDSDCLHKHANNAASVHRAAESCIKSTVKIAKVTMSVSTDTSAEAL

The first assay addresses human CB1 receptor (Homo sapiens, UniProt P21554). Nature of the assay: Human CB1 receptor binding, [3H] CP-55,940 displacement on HEK cell membranes. As to conditions: CB1 Ki. The arrangement: expressed in transfected cells; host or cells: HEK cells, doxycycline-induced; membrane preparation. Summed up: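 Membranes from doxycycline-induced HEK cells expressing human CB1 incubated 60 min at room temperature with [3H] CP-55,940 (final […]) in 50 mM Tris pH 7.4, 100 mM NaCl, 3 mM MgCl2, 0.2 mM EGTA, 0.04% BSA. Nonspecific binding defined with 50 μM WIN-55,212-2; filtration and scintillation counting gave EC50 and Ki.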
With `CC(C)(C)[C@H](NC(=O)c1nn(Cc2ccc(C#N)cc2)c2ccc(Cl)cc12)C(=O)NCC(N)=O` [Example 443], the inhibition constant (Ki) was above 400 nM. In the case of `CC(C)(C)[C@H](NC(=O)c1nn(Cc2ccc(C#N)cc2)c2ccc(Cl)cc12)C(=O)NCCS(N)(=O)=O` [Example 444], the Ki is above 400 nM. Same read-out and setting: for `CC(C)(C)[C@H](NC(=O)c1nn(Cc2ccc(C#N)cc2)c2ccc(Cl)cc12)C(=O)NC[C@@H](O)CO` [Example 445] the value was above 400 nM; for `CC(C)(C)[C@H](NC(=O)c1nn(Cc2ccc(C#N)cc2)c2ccc(Cl)cc12)C(=O)NC1CC1` [Example 446], 168 nM. The same measure, in the same setting: for `CC(C)(C)[C@H](NC(=O)c1nn(Cc2ccc(C#N)cc2)c2ccc(Cl)cc12)C(=O)NCCO` [Example 447] the value was 170 nM; for `CC(C)(C)[C@H](NC(=O)c1nn(Cc2ccc(C#N)cc2)c2ccc(Cl)cc12)C(=O)NC(CO)CO` [Example 448], above 400 nM; for `CC(C)(C)[C@H](NC(=O)c1nn(Cc2ccc(C#N)cc2)c2ccc(Cl)cc12)C(=O)NC1CCC1` [Example 449], above 400 nM. Same read-out and setting: in the case of `CC(C)NC(=O)[C@@H](NC(=O)c1nn(Cc2ccc(C#N)cc2)c2ccc(Cl)cc12)C(C)(C)C` [Example 450] it was 241 nM; in that of `CC(C)(C)[C@H](NC(=O)c1nn(Cc2ccc(C#N)cc2)c2ccc(Cl)cc12)C(=O)NCC1CC1` [Example 451], above 400 nM.

Consider `CC(C)(C)[C@H](NC(=O)c1nn(Cc2ccc(C#N)cc2)c2ccccc12)C(=O)N[C@H]1CNC(=O)C1` [Example 452], for which the Ki was above 400 nM.

`CC(C)(C)[C@H](NC(=O)c1nn(Cc2ccc(C#N)cc2)c2c(F)cccc12)C(=O)N[C@H]1CNC(=O)C1` [Example 453] showed a Ki above 400 nM.

Turning to `CC(C)(C)[C@H](NC(=O)c1nn(Cc2ccc(C#N)cc2)c2cc(F)ccc12)C(=O)N[C@H]1CNC(=O)C1` [Example 454], the Ki is above 400 nM. Still for that read-out and setting: in the case of `CC(C)(C)[C@H](NC(=O)c1nn(Cc2ccc(F)cc2)c2ccccc12)C(=O)N[C@H]1CNC(=O)C1` [Example 455] it was 33.6 nM; in that of `CC(C)(C)[C@H](NC(=O)c1nn(Cc2ccc(C#N)cc2)c2ccccc12)C(=O)N[C@@H]1CNC(=O)C1` [Example 456], 43.8 nM. Still for that read-out and setting: for `CC(C)(C)[C@H](NC(=O)c1nn(Cc2ccc(C#N)cc2)c2cc(F)ccc12)C(=O)N[C@@H]1CNC(=O)C1` [Example 458] the value was 120 nM. The same measure, in the same setting: in the case of `CC(C)(C)[C@H](NC(=O)c1nn(Cc2ccc(C#N)cc2F)c2ccccc12)C(=O)NCCC(N)=O` [Example 471] it was above 400 nM; in that of `CC(C)(C)[C@H](NC(=O)c1nn(Cc2ccc(F)cc2)c2ccc(Cl)cc12)C(=O)NCCC(N)=O` [Example 477], 28.3 nM; in that of `CC(C)(C)[C@H](NC(=O)c1nn(Cc2ccc(C#N)cc2)c2ccccc12)C(=O)NC[C@H]1C[C@@H]1CO` [Example 485], 152 nM. For the compound `CC(C)(C)[C@H](NC(=O)c1nn(Cc2ccc(C#N)cc2)c2c(F)cccc12)C(=O)NC[C@H]1C[C@@H]1CO` [Example 486], the affinity, expressed as Ki, was 43.9 nM.

As to `CC(C)(C)[C@H](NC(=O)c1nn(Cc2ccc(C#N)cc2)c2cc(F)ccc12)C(=O)NC[C@H]1C[C@@H]1CO` [Example 487], the Ki worked out at 109 nM. The same measure, in the same setting: in the case of `CC(C)(C)[C@H](NC(=O)c1nn(Cc2ccc(C#N)cc2)c2ccccc12)C(=O)NC[C@H]1C[C@H]1CO` [Example 489] it was 127 nM. The same measure, in the same setting: for `CC(C)(C)[C@H](NC(=O)c1nn(Cc2ccc(C#N)cc2)c2cc(F)ccc12)C(=O)NC[C@H]1C[C@H]1CO` [Example 491] the value was 88.5 nM. Still for that read-out and setting: for `Cn1ccc(NC(=O)[C@@H](NC(=O)c2nn(Cc3ccc(F)cc3)c3ccccc23)C(C)(C)C)n1` [Example 515] the value was 37.5 nM.

The assay is the same for the next values; noted with them: read-out: CB1 Ki.
Turning to `CC(C)(C)[C@H](NC(=O)c1nn(Cc2ccc(F)cc2)c2ccccc12)C(=O)NCc1[nH]nc2c1CCC2` [Example 460], the Ki came to 24.6 nM. Take `CC(C)(C)[C@H](NC(=O)c1nn(Cc2ccc(C#N)cc2)c2ccccc12)C(=O)NCc1nnc(C(=O)NCCO)o1` [Example 461]: the Ki is above 400 nM. On the same count and under the same terms, in the case of `CC(C)(C)[C@H](NC(=O)c1nn(Cc2ccc(C#N)cc2)c2cc(F)ccc12)C(=O)NCc1nnc(C(=O)NCCO)o1` [Example 463] it was 274 nM; in that of `CC(C)(C)[C@H](NC(=O)c1nn(Cc2ccc(C#N)cc2)c2c(F)cccc12)C(=O)NCc1nnc(C(=O)NCCO)o1` [Example 464], 58 nM; in that of `CC(C)(C)[C@H](NC(=O)c1nn(Cc2ccc(C#N)cc2)c2ccccc12)C(=O)NCCN1CCNC(=O)C1` [Example 465], above 400 nM. Same read-out and setting: for `CC(C)(C)[C@H](NC(=O)c1nn(Cc2ccc(C#N)cc2F)c2ccccc12)C(=O)NCCN1CCNC(=O)C1` [Example 466] the value was above 400 nM; for `CC(C)(C)[C@H](NC(=O)c1nn(Cc2ccc(F)cc2)c2ccccc12)C(=O)NCCN1CCNC(=O)C1` [Example 467], 53.8 nM.

Take `CC(C)(C)[C@H](NC(=O)c1nn(Cc2ccc(F)cc2F)c2ccccc12)C(=O)NCCN1CCNC(=O)C1` [Example 468]: the inhibition constant (Ki) turned out to be 23.5 nM. Still for that read-out and setting: for `CC(C)(C)[C@H](NC(=O)c1nn(Cc2ccc(F)c(F)c2)c2ccccc12)C(=O)NCCN1CCNC(=O)C1` [Example 469] the value was 80.7 nM; for `CC(C)(C)[C@H](NC(=O)c1nn(Cc2ccc(F)cc2)c2c(F)cccc12)C(=O)NCCN1CCNC(=O)C1` [Example 474], 41.2 nM; for `CC(C)(C)[C@H](NC(=O)c1nn(Cc2ccc(F)cc2)c2ccc(Cl)cc12)C(=O)NCCN1CCNC(=O)C1` [Example 475], 141 nM. Same read-out and setting: in the case of `Cc1cc(O)nc(NCCNC(=O)[C@@H](NC(=O)c2nn(Cc3ccc(F)cc3)c3ccccc23)C(C)(C)C)n1` [Example 481] it was 52.6 nM; in that of `Cc1cc(O)nc(CCNC(=O)[C@@H](NC(=O)c2nn(Cc3ccc(F)cc3)c3ccccc23)C(C)(C)C)n1` [Example 483], 84 nM; in that of `CCOC(=O)c1ccc(Cn2nc(C(=O)N[C@H](C(=O)NCCO)C(C)(C)C)c3ccccc32)c(F)c1` [Example 484], above 400 nM.

Consider `CC(C)(C)[C@H](NC(=O)c1nn(Cc2ccc(F)cc2)c2ccccc12)C(=O)NCC(=O)NCC(=O)O` [Example 495], for which the Ki is 130 nM. For `CC(C)(C)[C@H](NC(=O)c1nn(Cc2ccc(F)cc2)c2ccccc12)C(=O)NC[C@H](O)CN1CCCC1` [Example 503], the Ki turned out to be 321 nM.

Turning to `CCN(CC)C[C@@H](O)CNC(=O)[C@@H](NC(=O)c1nn(Cc2ccc(F)cc2)c2ccccc12)C(C)(C)C` [Example 505], the Ki was found to be 301 nM. Still for that read-out and setting: in the case of `CN(CCO)C[C@@H](O)CNC(=O)[C@@H](NC(=O)c1nn(Cc2ccc(F)cc2)c2ccccc12)C(C)(C)C` [Example 507] it was 212 nM; in that of `CC(C)(C)[C@H](NC(=O)c1nn(Cc2ccc(F)cc2)c2ccccc12)C(=O)NCC(=O)NCCCO` [Example 521], above 400 nM. As for `CC(C)(C)[C@H](NC(=O)c1nn(Cc2ccc(F)cc2)c2ccccc12)C(=O)NCC(=O)NC[C@H](O)CO` [Example 522], the Ki was above 400 nM.
